The text below walks through data of ChEMBL document CHEMBL1150101, “Novel antiplatelet naphthalene from Rhamnus nakaharai” (J Nat Prod, 1995).

Assay [1] in a line: Antiplatelet activity against washed rabbit platelet assessed as PAF-induced platelet aggregation at 300 uM administered 3 mins before PAF challenge. Type of assay: functional, Oryctolagus cuniculus.
The nature of assay [2]: Antiplatelet activity against washed rabbit platelet assessed as thrombin-induced platelet aggregation at 300 uM administered 3 mins before thrombin challenge. Type of assay: functional, Oryctolagus cuniculus.
Assay [3] in a line: Antiplatelet activity against washed rabbit platelet assessed as collagen-induced platelet aggregation at 300 uM administered 3 mins before collagen challenge. Type of assay: functional, Oryctolagus cuniculus.
The nature of assay [4]: Antiplatelet activity against washed rabbit platelet assessed as arachidonic acid-induced platelet aggregation at 300 uM administered 3 mins before arachidonic acid challenge. Type of assay: functional, Oryctolagus cuniculus.
Assay [5] is described as follows: Antiplatelet activity against washed rabbit platelet assessed as PAF-induced platelet aggregation at 50 uM administered 3 mins before PAF challenge. In kind it is functional, Oryctolagus cuniculus.
Assay [6] can be described thus: Antiplatelet activity against human platelet assessed as epinephrine-induced platelet aggregation administered 3 mins before epinephrine challenge. In kind it is functional.
Assay [7] is described as follows: Antiplatelet activity against washed rabbit platelet assessed as arachidonic acid-induced platelet aggregation at 50 uM administered 3 mins before arachidonic acid challenge. In kind it is functional, Oryctolagus cuniculus.
Assay [8] in a line: Antiplatelet activity against washed rabbit platelet assessed as collagen-induced platelet aggregation at 50 uM administered 3 mins before collagen challenge. In kind it is functional, Oryctolagus cuniculus.
Assay [9] is described as follows: Antiplatelet activity against washed rabbit platelet assessed as thrombin-induced platelet aggregation at 50 uM administered 3 mins before thrombin challenge. In kind it is functional, Oryctolagus cuniculus.
Assay [10] can be described thus: Antiplatelet activity against human platelet assessed as epinephrine-induced platelet aggregation at 20 uM administered 3 mins before epinephrine challenge. In kind it is functional.
The nature of assay [11]: Antiplatelet activity against human platelet assessed as epinephrine-induced platelet aggregation at 50 uM administered 3 mins before epinephrine challenge. Type of assay: functional.
A short description of assay [12]: Antiplatelet activity against washed rabbit platelet assessed as arachidonic acid-induced platelet aggregation. In kind it is functional, cell-based. To be noted: Oryctolagus cuniculus.
Assay [13] can be described thus: Antiplatelet activity against washed rabbit platelet assessed as PAF-induced platelet aggregation at 400 uM administered 3 mins before PAF challenge. Type of assay: functional, Oryctolagus cuniculus.
Assay [14] can be described thus: Antiplatelet activity against washed rabbit platelet assessed as thrombin-induced platelet aggregation at 400 uM administered 3 mins before thrombin challenge. In kind it is functional, Oryctolagus cuniculus.
Assay [15] is described as follows: Antiplatelet activity against washed rabbit platelet assessed as collagen-induced platelet aggregation at 400 uM administered 3 mins before collagen challenge. Type of assay: functional, Oryctolagus cuniculus.
Assay [16] in a line: Antiplatelet activity against washed rabbit platelet assessed as arachidonic acid-induced platelet aggregation at 400 uM administered 3 mins before arachidonic acid challenge. Type of assay: functional, Oryctolagus cuniculus.
Assay [17] in a line: Antiplatelet activity against human platelet assessed as epinephrine-induced platelet aggregation at 100 uM administered 3 mins before epinephrine challenge. In kind it is functional.

Take `COc1c(-c2ccc(OC(C)=O)c(OC(C)=O)c2)oc2cc(OC(C)=O)cc(OC(C)=O)c2c1=O`: the Activity is recorded as 0% in assay [1], 64.9% in [2], 0% in assay [3] and 0% in assay [4].

For the compound `COc1cc(O)c2c(O)c3c(cc2c1)COC3=O`, the Activity worked out at 80% in assay [1], 88.1% in assay [2], 41.7% in assay [3] and 22.1% in [4].

Turning to `COc1c(-c2ccc(O)c(O)c2)oc2cc(O)cc(O)c2c1=O` [3-O-METHYLQUERCETIN], the Activity in [1] came to 50.1%; in assay [2] it was 81.2%; in assay [3] it was 5.4%; in assay [4] it was 0%.

With `CC(=O)Oc1ccccc1C(=O)O` [ASPIRIN], the Activity in assay [5] turned out to be 90.5%; in assay [6], 39.6%; in assay [7], 0%; in assay [8], 85.4%; in assay [9] it was 91.9%.

In general, IC50 refers to the concentration at which inhibition is half-maximal. `COc1cc(OC(C)=O)cc2cc(C)c(C(C)=O)c(OC(C)=O)c12` [ISOTORACHRYSONE PERACETATE]: the Activity is 83% in [10]; 13% in assay [11]; 86.7% in [1]; 82.7% in assay [2]; 16.8% in assay [3]; 0% in [4]. Besides, the IC50 in assay [12] is 5.1 µM.

On to `COc1cc(O)cc2cc(C)c(C(C)=O)c(O)c12` [ISOTORACHRYSONE], for which the Activity was found to be 94.2% in assay [13]; 92.2% in assay [14]; 39.1% in assay [15]; 0% in assay [16]; 20.2% in assay [17].
